From patent publication US6362369B1, “Phthalic acid diamide derivatives fluorine-containing aniline compounds as starting material, agricultural and horticultural insecticides, and a method for application of the insecticides” (Nihon Nohyaku Co., Ltd., priority 1997, dated 2002)

What was measured:
[1] = test system: rice leafroller (Cnaphalocrocis medinalis); assay: Insecticidal effect on rice leafroller (Test Example 3); format: in vivo; details: 500 ppm, 25° C., humidity 70%; for Insecticidal effect, Test Example 3: rice lamina immersed; for Insecticidal effect, Test Example 3 / Insecticidal effect on rice leafroller (Test Example 3), judged grade: four days after inoculation; for Insecticidal effect on rice leafroller (Test Example 3), judged grade / Insecticidal effect (Test Example 3), judged from mortality: rice lamina dip; for Insecticidal effect on rice leafroller (Test Example 3), judged grade: third-instar larvae; for Insecticidal effect (Test Example 3), judged from mortality: 4 days after inoculation
Experimental: Insecticidal effect on rice leafroller (Cnaphalocrocis medinalis)
After air-drying, the lamina was placed in a plastic Petri dish with a diameter of 9 cm whose bottom had been covered with a wetted filter paper. The lamina was inoculated with third-instar larvae of rice leafroller, after which the dish was allowed to stand in a room thermostated at 25° C. and having a humidity of 70%. Four days after the inoculation, the dead and alive were counted and the insecticidal effect was judged according to the criterion shown in Test Example 1. The test was carried out with triplicate groups of 10 insects.

[2] = test system: diamondback moth (Plutella xylostella); assay: Insecticidal effect on diamondback moth (Test Example 1); format: in vivo; details: for Insecticidal effect, Test Example 1 / Insecticidal effect (Test Example 1), judged from mortality: diamondback moth; for Insecticidal effect on diamondback moth (Test Example 1), judged grade: mortality judged according to the criterion shown in Test Example 1; for Insecticidal effect (Test Example 1), judged from mortality: judged by the criterion of Test Example 1
Summary of the method: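 Oviposition by adults on Chinese cabbage seedling; immersion; air-dry; 25° C room. Count of hatched larvae at day 6 post-immersion → mortality → effect graded by criterion. Triplicate, 10 insects/group.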

[3] = third-instar larvae of rice leafroller
[4] = judged by the mortality criterion of Test Example 1
[5] = rice leafroller third-instar larvae
[6] = mortality judged by criterion of Test Example 1

Structure (SMILES): CC(C)NC(=O)c1cccc(Cl)c1C(=O)Nc1ccc(F)cc1Cl [compound 211]
- Insecticidal effect, Test Example 3 [1, 3]: A (100)
- Insecticidal effect, Test Example 1 [2, 4]: A (100)

Structure (SMILES): Cc1cc(OC(F)(F)C(F)C(F)(F)F)ccc1NC(=O)c1c(I)cccc1C(=O)NC(C)C (stereo not shown) [compound 456]
- Insecticidal effect on rice leafroller (Test Example 3), judged grade [1]: A (100)
- Insecticidal effect on diamondback moth (Test Example 1), judged grade [2]: A (100)

Structure (SMILES): CCN(CC)C(=O)c1c(F)cccc1C(=O)Nc1ccc(OC(F)(F)F)cc1 [compound 1548]
- Insecticidal effect (Test Example 3), judged from mortality [1, 3]: A (100)
- Insecticidal effect (Test Example 1), judged from mortality [2]: A (100)

Structure (SMILES): Cc1cc(Cl)ccc1NC(=O)c1cc(F)ccc1C(=O)NC(C)C [compound 532]
- Insecticidal effect on rice leafroller (Test Example 3), judged grade [1]: A (100)
- Insecticidal effect on diamondback moth (Test Example 1), judged grade [2]: A (100)

Structure (SMILES): COc1cccc(C(=O)NC(C)C)c1C(=O)Nc1ccc(OC(F)(F)F)cc1 [compound 769]
- Insecticidal effect on rice leafroller (Test Example 3), judged grade [1]: D (79-50)
- Insecticidal effect on diamondback moth (Test Example 1), judged grade [2]: A (100)

Structure (SMILES): CCN(CC)C(=O)c1c(F)cccc1C(=O)Nc1ccc(OC(F)(F)C(F)F)cc1C [compound 1529]
- Insecticidal effect (Test Example 3), judged from mortality [1, 3]: A (100)
- Insecticidal effect (Test Example 1), judged from mortality [2]: A (100)

Structure (SMILES): CC(C)NC(=O)c1ccccc1C(=O)Nc1ccc(F)cc1 [compound 23]
- Insecticidal effect, Test Example 3 [1, 3]: D (79-50)
- Insecticidal effect, Test Example 1 [2, 4]: A (100)

Structure (SMILES): Cc1cc(Oc2ncc(C(F)(F)F)cc2Cl)ccc1NC(=O)c1c(F)cccc1C(=O)NC(C)C [compound 577]
- Insecticidal effect on rice leafroller (Test Example 3), judged grade [1]: A (100)
- Insecticidal effect on diamondback moth (Test Example 1), judged grade [2]: A (100)

Structure (SMILES): CCNC(=O)c1c(Cl)cccc1C(=O)Nc1ccc(C(F)(F)C(F)(F)C(F)(F)F)cc1F [compound 1490]
- Insecticidal effect (Test Example 3), judged from mortality [1, 3]: A (100)
- Insecticidal effect (Test Example 1), judged from mortality [2]: A (100)

Structure (SMILES): CC(C)NC(=O)c1c(C(=O)Nc2cccc(SC(F)(F)F)c2)cccc1[N+](=O)[O-] [compound 623]
- Insecticidal effect on rice leafroller (Test Example 3), judged grade [1]: A (100)
- Insecticidal effect on diamondback moth (Test Example 1), judged grade [2]: A (100)

Structure (SMILES): Cc1cc(Cl)ccc1NC(=O)c1c(F)ccc(F)c1C(=O)NC(C)C [compound 582]
- Insecticidal effect on rice leafroller (Test Example 3), judged grade [1]: A (100)
- Insecticidal effect on diamondback moth (Test Example 1), judged grade [2]: A (100)

Structure (SMILES): CCN(CC)C(=O)c1ccccc1C(=O)Nc1ccc(Cl)cc1C [compound 1752]
- Insecticidal effect (Test Example 3), judged from mortality [1, 3]: A (100)
- Insecticidal effect (Test Example 1), judged from mortality [2]: A (100)

Structure (SMILES): Cc1cc(C(F)(F)C(F)(F)F)ccc1NC(=O)c1cccc(F)c1C(=O)NCc1ccccc1 [compound 1470]
- Insecticidal effect (Test Example 3), judged from mortality [1, 3]: A (100)
- Insecticidal effect (Test Example 1), judged from mortality [2]: A (100)

Structure (SMILES): CCN(CC)C(=O)c1c(C(=O)Nc2cc(Cl)ccc2C)cccc1[N+](=O)[O-] [compound 13]
- Insecticidal effect, Test Example 3 [1, 3]: D (79-50)
- Insecticidal effect, Test Example 1 [2, 4]: D (79-50)

Structure (SMILES): Cc1cc(N(C)C)ccc1NC(=O)c1cccc([N+](=O)[O-])c1C(=O)NC(C)C [compound 723]
- Insecticidal effect on rice leafroller (Test Example 3), judged grade [1]: D (79-50)
- Insecticidal effect on diamondback moth (Test Example 1), judged grade [2]: D (79-50)

Structure (SMILES): Cc1cc(CCC(C)(C)C)ccc1NC(=O)c1cccc(Cl)c1C(=O)NC(C)C [compound 1323]
- Insecticidal effect, Test Example 3 [1, 5]: A (100)
- Insecticidal effect, Test Example 1 [2, 6]: A (100)

Structure (SMILES): CC(C)NC(=O)c1c(C(=O)Nc2ccc(SC(F)(F)Br)cc2)cccc1[N+](=O)[O-] [compound 1108]
- Insecticidal effect, Test Example 3 [1, 5]: A (100)
- Insecticidal effect, Test Example 1 [2, 6]: A (100)

Structure (SMILES): Cc1cc(SC(C)C)ccc1NC(=O)c1cccc(F)c1C(=O)NC(C)C [compound 518]
- Insecticidal effect on rice leafroller (Test Example 3), judged grade [1]: B (99-90)
- Insecticidal effect on diamondback moth (Test Example 1), judged grade [2]: A (100)

Structure (SMILES): COc1ccc(NC(=O)c2c(Br)cccc2C(=O)NC(C)C)c(C)c1 [compound 322]
- Insecticidal effect, Test Example 3 [1, 3]: B (99-90)
- Insecticidal effect, Test Example 1 [2, 4]: A (100)

Structure (SMILES): Cc1cc(OC(F)(F)C(F)(F)Br)ccc1NC(=O)c1c(I)cccc1C(=O)NC(C)C [compound 444]
- Insecticidal effect, Test Example 3 [1, 3]: A (100)
- Insecticidal effect, Test Example 1 [2, 4]: A (100)

Structure (SMILES): CCc1ccc(Cl)c(CC)c1NC(=O)c1cccc(I)c1C(=O)NC(C)C [compound 925]
- Insecticidal effect on rice leafroller (Test Example 3), judged grade [1]: A (100)
- Insecticidal effect on diamondback moth (Test Example 1), judged grade [2]: A (100)

Structure (SMILES): Cc1cccc(NC(=O)c2cccc([N+](=O)[O-])c2C(=O)NC(C)C)c1C [compound 647]
- Insecticidal effect on rice leafroller (Test Example 3), judged grade [1]: B (99-90)
- Insecticidal effect on diamondback moth (Test Example 1), judged grade [2]: A (100)

Structure (SMILES): CC(C)NC(=O)c1cccc(Cl)c1C(=O)Nc1cccc([S+]([O-])C(F)(F)F)c1 (stereo not shown) [compound 206]
- Insecticidal effect, Test Example 3 [1, 3]: A (100)
- Insecticidal effect, Test Example 1 [2, 4]: A (100)

Structure (SMILES): CC(C)NC(=O)c1c(Cl)cccc1C(=O)Nc1cccc(SC(F)(F)F)c1 [compound 99]
- Insecticidal effect, Test Example 3 [1, 3]: A (100)
- Insecticidal effect, Test Example 1 [2, 4]: A (100)

Structure (SMILES): Cc1cc(C(F)(F)C(F)(F)F)ccc1NC(=O)c1cc(Cl)cc(Cl)c1C(=O)NC(C)C [compound 1225]
- Insecticidal effect, Test Example 3 [1, 5]: A (100)

Structure (SMILES): Cc1cc(Br)ccc1NC(=O)c1cccc([S+](C)[O-])c1C(=O)NC(C)C (stereo not shown) [compound 790]
- Insecticidal effect on rice leafroller (Test Example 3), judged grade [1]: A (100)

Structure (SMILES): CC(C)NC(=O)c1cccc(I)c1C(=O)Nc1ccc(C(F)(F)F)cc1 [compound 415]
- Insecticidal effect, Test Example 3 [1, 3]: A (100)

Structure (SMILES): Cc1cc(C(F)(F)C(F)(F)F)ccc1NC(=O)c1c(I)cccc1C(=O)N1CC(C)CC(C)C1 (stereo not shown) [compound 1140]
- Insecticidal effect, Test Example 3 [1, 5]: A (100)

Structure (SMILES): Cc1ccc(NC(=O)c2ccccc2C(=O)NC(C)C)c(C)c1 [compound 44]
- Insecticidal effect, Test Example 3 [1, 3]: A (100)

Structure (SMILES): Cc1cc(OC(F)F)ccc1NC(=O)c1c(C(=O)NC(C)C)cccc1[S+]([O-])CC(F)(F)F (stereo not shown) [compound 800]
- Insecticidal effect on rice leafroller (Test Example 3), judged grade [1]: C (89-80)

Structure (SMILES): CC(C)NC(=O)c1ccccc1C(=O)Nc1ccc(C(F)(F)C(F)(F)C(F)(F)C(F)(F)F)cc1 [compound 28]
- Insecticidal effect, Test Example 3 [1, 3]: A (100)

Structure (SMILES): CC(C)NC(=O)c1c(I)cccc1C(=O)Nc1ccc(C(F)(F)F)cc1 [compound 349]
- Insecticidal effect, Test Example 3 [1, 3]: A (100)

Structure (SMILES): CCC(C)CNC(=O)c1cccc(I)c1C(=O)Nc1ccc(C(F)(F)C(F)(F)F)cc1C (stereo not shown) [compound 1027]
- Insecticidal effect, Test Example 3 [1, 5]: A (100)

Structure (SMILES): Cc1ccc(C#CC(C)(C)NC(=O)c2c(Cl)cccc2C(=O)Nc2ccc(C(F)(F)C(F)(F)F)cc2C)cc1 [compound 1570]
- Insecticidal effect (Test Example 3), judged from mortality [1, 3]: A (100)

Structure (SMILES): Cc1cc(OC(F)(F)F)ccc1NC(=O)c1c(I)cccc1C(=O)NC(C)(C)CO [compound 1520]
- Insecticidal effect (Test Example 3), judged from mortality [1, 3]: A (100)

Structure (SMILES): CCOP(=O)(OCC)c1ccc(NC(=O)c2ccccc2C(=O)NC(C)C)c(C)c1 [compound 81]
- Insecticidal effect, Test Example 3 [1, 3]: A (100)

Structure (SMILES): Cc1cc(C(F)(F)C(F)(F)F)ccc1NC(=O)c1c(Cl)cccc1C(=O)NCc1ccc(Cl)cc1Cl [compound 1350]
- Insecticidal effect, Test Example 3 [1, 5]: A (100)

Structure (SMILES): COC(=O)c1ccc(NC(=O)c2ccccc2C(=O)NC(C)C)c(C)c1 [compound 71]
- Insecticidal effect, Test Example 3 [1, 3]: D (79-50)

Structure (SMILES): Cc1cc(OC(F)F)ccc1NC(=O)c1cccc(C(F)(F)F)c1C(=O)NC(C)C [compound 759]
- Insecticidal effect on rice leafroller (Test Example 3), judged grade [1]: D (79-50)

Structure (SMILES): Cc1cc(C(F)(F)C(F)(F)F)ccc1NC(=O)c1c(I)cccc1C(=O)N(C(C)C)C(C)C [compound 1072]
- Insecticidal effect, Test Example 3 [1, 5]: A (100)

Structure (SMILES): CC(C)NC(=O)c1cccc(F)c1C(=O)Nc1ccc(C(F)(F)C(F)(F)C(F)(F)C(F)(F)F)cc1 [compound 536]
- Insecticidal effect on rice leafroller (Test Example 3), judged grade [1]: A (100)

Structure (SMILES): CCCCCCNC(=O)c1cccc(I)c1C(=O)Nc1ccc(C(F)(F)C(F)(F)F)cc1C [compound 950]
- Insecticidal effect, Test Example 3 [1, 5]: C (89-80)

Structure (SMILES): Cc1cc(C(F)(F)C(F)(F)F)ccc1NC(=O)c1c(I)cccc1C(=O)NCCC(C)C [compound 1016]
- Insecticidal effect, Test Example 3 [1, 5]: A (100)

Structure (SMILES): Cc1cc(OC(F)F)ccc1NC(=O)c1c(SCC(F)(F)F)cccc1C(=O)NC(C)C [compound 798]
- Insecticidal effect on rice leafroller (Test Example 3), judged grade [1]: A (100)

Structure (SMILES): COC(Oc1ccc(NC(=O)c2cccc(Cl)c2C(=O)NC(C)C)c(C)c1)=C(C(F)(F)F)C(F)(F)F [compound 1293]
- Insecticidal effect, Test Example 3 [1, 5]: A (100)

Structure (SMILES): Cc1cc(C(F)(C(F)(F)F)C(F)(F)F)ccc1NC(=O)c1cc(Cl)cc(Cl)c1C(=O)NC(C)C [compound 1226]
- Insecticidal effect, Test Example 3 [1, 5]: A (100)

Structure (SMILES): Cc1cc(OC(F)(F)F)ccc1NC(=O)c1cc(Cl)cc(Cl)c1C(=O)NC(C)C [compound 1224]
- Insecticidal effect, Test Example 3 [1, 5]: B (99-90)

Structure (SMILES): CC(C)NC(=O)c1c(C(=O)Nc2cccc3c2CCC3)cccc1[N+](=O)[O-] [compound 735]
- Insecticidal effect on rice leafroller (Test Example 3), judged grade [1]: D (79-50)

Structure (SMILES): Cc1cc(C(F)(F)C(F)(F)F)ccc1NC(=O)c1c(Cl)cccc1C(=O)NC(C)(C)C#Cc1ccccc1 [compound 1480]
- Insecticidal effect (Test Example 3), judged from mortality [1, 3]: A (100)

Structure (SMILES): CC(C)NC(=O)c1c(I)cccc1C(=O)Nc1ccc(OC(F)(F)F)cc1 [compound 352]
- Insecticidal effect, Test Example 3 [1, 3]: A (100)

Structure (SMILES): Cc1c(NC(=O)c2cccc(I)c2C(=O)NC(C)C)ccc(C(F)(F)C(F)(F)F)c1C [compound 1640]
- Insecticidal effect (Test Example 3), judged from mortality [1, 3]: A (100)

Structure (SMILES): Cc1cc(OC(F)F)ccc1NC(=O)c1cccc(I)c1C(=O)NCc1ccccc1Cl [compound 1432]
- Insecticidal effect, Test Example 3 [1, 5]: A (100)
